In ChEMBL document CHEMBL1201862, “PubChem BioAssay data set” (2004):
Calls of active or inactive are those of the source.

What was measured:
[1] = biological target: Disintegrin and metalloproteinase domain-containing protein 17 (Homo sapiens, UniProt P78536); assay: exosite inhibitors of ADAM17, dose response, biochemical (AID 743260)
[2] = inhibition of ADAM10 peptide cleavage – biochemical, FRET peptide substrate, recombinant human ADAM10, selectivity assay for ADAM17 exosite inhibitor project, dose response (AID 743259);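 also: ADAM10 enzyme cleaving a FRET peptide substrate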
[3] = activation of miR-122 Renilla sensor silencing – cell-based, Huh7 psiCHECK-miR122, Renilla luciferase, cherry-picked, dose response (AID 651956); assay type: functional;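 also: huh7 hepatoma cells stably carrying a psiCHECK-2 miR-122 sensor plasmid; renilla luciferase signal reporting endogenous miR-122 activity after 48 h compound exposure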
Paired box protein Pax-8 = Paired box protein Pax-8 (Homo sapiens, UniProt Q06710); assay: PAX8 transcriptional activity inhibition in RMG-I – RMG-I cells, luciferase, cherry-pick, dose response (AID 687027); assay type: functional, cell-based;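 also: luciferase reporter driven by Pax8 target thyroperoxidase promoter measured by SteadyGlo luminescence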
[4] = general mammalian cell viability loss – inhibitor set, cherry-pick, set 2, cytotoxicity control for miR-122 modulator project, dose response (AID 720697); assay type: functional, cell-based
HeLa = assay: viability loss in HeLa cells – cell-based, ATP luminescence, cherry-pick samples, cytotoxicity control, dose response (AID 687004); assay type: functional; settings: Homo sapiens
[5] = P. falciparum Dd2 growth inhibitors, dose response, SYBR Green, cherry-picked samples (AID 1159567); assay type: functional, cell-based
[6] = cytotoxicity in MITF-independent A375 cells – cell-based, CellTiter-Glo luminescence, dry powder, set 4, counter-screen for MITF inhibitor project, dose response (AID 624364); assay type: functional; settings: A-375;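 also: A375 melanoma cells are MITF independent so this is a counter screen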
[7] = viability loss in MITF-independent A375 cells – cell-based, CellTiter-Glo luminescence, dry powder, set 2, counter-screen for MITF inhibitor project, dose response (AID 624489); assay type: functional; settings: A-375;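 also: actives are compounds lowering A375 viability meaning general cytotoxicity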
[8] = biological target: T1, RNA-editing ligase 1, mitochondrial (Trypanosoma brucei brucei, UniProt P86926); assay: inhibition of trypanosome RNA editing ligase – biochemical, fluorescence, Trypanosoma brucei, dose response (AID 1117295); assay type: functional
T1 sequence (P86926 whole entry): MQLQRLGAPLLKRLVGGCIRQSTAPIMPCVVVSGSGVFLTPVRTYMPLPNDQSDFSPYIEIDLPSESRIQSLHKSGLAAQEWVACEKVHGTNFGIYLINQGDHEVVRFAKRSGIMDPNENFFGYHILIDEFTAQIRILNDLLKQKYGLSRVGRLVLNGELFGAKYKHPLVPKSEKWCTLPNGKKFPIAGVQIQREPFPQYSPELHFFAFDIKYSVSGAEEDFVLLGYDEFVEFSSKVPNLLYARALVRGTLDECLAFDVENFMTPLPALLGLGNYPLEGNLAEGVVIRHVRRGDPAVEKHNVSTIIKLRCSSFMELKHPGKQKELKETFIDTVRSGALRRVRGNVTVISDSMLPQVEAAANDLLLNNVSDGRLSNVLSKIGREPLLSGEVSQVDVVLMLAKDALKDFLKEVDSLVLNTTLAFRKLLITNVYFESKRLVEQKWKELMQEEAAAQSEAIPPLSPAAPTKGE

[9] = Potency on glucagon-like peptide 1 release, dose-response in NCI-H716 cell line, half maximal inhibitory concentration (AID 1117344); assay type: functional, cell-based

Disintegrin and metalloproteinase domain-containing protein 17, sequence (P78536 whole entry, the tested form may be a part): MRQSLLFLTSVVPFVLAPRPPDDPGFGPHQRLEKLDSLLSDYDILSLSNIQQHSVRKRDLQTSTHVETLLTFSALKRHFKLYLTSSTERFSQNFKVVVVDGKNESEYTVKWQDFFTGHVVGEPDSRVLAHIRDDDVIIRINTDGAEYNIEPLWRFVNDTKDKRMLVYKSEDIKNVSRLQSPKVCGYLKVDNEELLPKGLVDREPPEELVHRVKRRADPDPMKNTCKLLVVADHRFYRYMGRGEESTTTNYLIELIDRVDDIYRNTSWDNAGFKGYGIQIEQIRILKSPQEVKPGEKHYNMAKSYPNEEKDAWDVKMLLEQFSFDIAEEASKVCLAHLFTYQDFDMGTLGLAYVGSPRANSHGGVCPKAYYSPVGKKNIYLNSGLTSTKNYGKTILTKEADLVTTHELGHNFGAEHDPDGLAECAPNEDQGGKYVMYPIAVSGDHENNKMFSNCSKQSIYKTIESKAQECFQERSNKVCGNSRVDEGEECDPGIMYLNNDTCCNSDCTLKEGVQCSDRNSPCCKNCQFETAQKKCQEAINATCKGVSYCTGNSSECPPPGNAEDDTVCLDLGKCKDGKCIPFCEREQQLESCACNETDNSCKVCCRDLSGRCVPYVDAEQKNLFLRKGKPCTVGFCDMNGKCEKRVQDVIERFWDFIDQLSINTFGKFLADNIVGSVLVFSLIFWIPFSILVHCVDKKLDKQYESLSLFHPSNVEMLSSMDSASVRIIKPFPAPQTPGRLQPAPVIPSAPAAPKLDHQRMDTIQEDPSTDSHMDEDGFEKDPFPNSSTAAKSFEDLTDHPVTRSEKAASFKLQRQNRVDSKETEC
Paired box protein Pax-8, sequence (Q06710 whole entry): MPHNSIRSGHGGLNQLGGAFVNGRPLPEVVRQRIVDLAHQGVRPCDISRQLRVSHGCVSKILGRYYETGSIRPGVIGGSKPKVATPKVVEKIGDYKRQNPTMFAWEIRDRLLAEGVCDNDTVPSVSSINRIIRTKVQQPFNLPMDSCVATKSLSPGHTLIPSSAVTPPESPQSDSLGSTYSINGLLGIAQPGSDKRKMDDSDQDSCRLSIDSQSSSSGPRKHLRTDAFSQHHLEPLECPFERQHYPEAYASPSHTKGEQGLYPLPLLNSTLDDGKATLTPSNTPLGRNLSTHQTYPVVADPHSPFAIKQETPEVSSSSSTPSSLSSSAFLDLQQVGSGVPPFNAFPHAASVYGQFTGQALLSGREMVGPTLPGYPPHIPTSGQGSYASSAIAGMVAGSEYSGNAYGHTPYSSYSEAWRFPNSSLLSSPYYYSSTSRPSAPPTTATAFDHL

CCc1noc(C)c1C(=O)OC(C)C(=O)Nc1ccc2c(c1)OCO2 (stereo not drawn)
IC50 [1]: > 69.6 µM (inactive) | IC50 [2]: > 69.6 µM (inactive)

C[C@H](CO)N1C[C@H](C)[C@@H](CN(C)Cc2ccc(-c3ccccc3)cc2)Oc2ccc(NC(=O)Cc3ccccc3)cc2CC1=O
AC50 [3]: 21.3 µM (active) | AC50 (Paired box protein Pax-8): 9.36 µM (active) | AC50 [4]: 28.7 µM (active)

C[C@@H]1CN([C@@H](C)CO)C(=O)c2cc(NC(=O)Nc3ccccc3)ccc2O[C@@H]1CN(C)C(=O)Nc1cccc2ccccc12
AC50 (HeLa): > 52 µM (inactive) | AC50 [5]: 8.14 µM (active)

CCN(CC)CCNC1=C(Nc2ccccc2)C(=O)c2ccccc2C1=O
AC50 [6]: > 70 µM (inactive) | AC50 [7]: > 70 µM (inactive)

CN1C(=O)c2cc(NC(=O)Cc3ccccc3)ccc2OC[C@H]2O[C@@H](CC(=O)NC3CCC3)CC[C@@H]21
AC50 [4]: 9.59 µM (active)

Cc1ccc(C(=O)NC2=C(c3ccccc3)C(=O)c3ccccc3C2=O)o1
AC50 [6]: 21.8 µM (active) | AC50 [7]: 19.1 µM (active)

COC(=O)C1=C(C)N(Cc2cccc(C(F)(F)F)c2)C(NCc2ccc(OC)cc2)=NC1c1ccccc1C(F)(F)F (stereo not drawn)
IC50 [8]: > 96.6 µM (inactive)

COc1ccc(C2=C(NC(=O)c3cccc(OC)c3)C(=O)c3ccccc3C2=O)cc1
AC50 [6]: 29.5 µM (active) | AC50 [7]: 13.6 µM (active)

COc1ccc(C2=C(NC(=O)c3ccccc3Cl)C(=O)c3ccccc3C2=O)cc1
AC50 [6]: 17.5 µM (active) | AC50 [7]: 11.8 µM (active)

CCN(CC)CCOc1ccc(/C(=C(\Cl)c2ccccc2)c2ccccc2)cc1 [CLOMIPHENE]
IC50 [9]: > 40 µM (inactive)
